# What was measured:
# RIPK2 = RIPK2 (Homo sapiens (Human), UniProt O43353); assay: In vitro RIPK2 inhibition; assay type: biochemical; conditions: for remaining activity at 1 µM: read-out: % RIPK2 Remaining activity vs DMSO (1 μM, 3 h); for remaining activity at 10 µM: read-out: % RIPK2 Remaining activity vs DMSO (10 μM, 3 h)
# JAK3 = JAK3 (Homo sapiens (Human), UniProt P52333); assay: HTRF KinEASE-TK kinase assay, JAK3; assay type: biochemical; conditions: for IC50: dose response; for remaining activity at 1 µM: read-out: % JAK3 Remaining activity vs DMSO (1 μM, 3 h); for remaining activity at 10 µM: read-out: % JAK3 Remaining activity vs DMSO (10 μM, 3 h)
# JAK3, sequence (P52333 781-1124): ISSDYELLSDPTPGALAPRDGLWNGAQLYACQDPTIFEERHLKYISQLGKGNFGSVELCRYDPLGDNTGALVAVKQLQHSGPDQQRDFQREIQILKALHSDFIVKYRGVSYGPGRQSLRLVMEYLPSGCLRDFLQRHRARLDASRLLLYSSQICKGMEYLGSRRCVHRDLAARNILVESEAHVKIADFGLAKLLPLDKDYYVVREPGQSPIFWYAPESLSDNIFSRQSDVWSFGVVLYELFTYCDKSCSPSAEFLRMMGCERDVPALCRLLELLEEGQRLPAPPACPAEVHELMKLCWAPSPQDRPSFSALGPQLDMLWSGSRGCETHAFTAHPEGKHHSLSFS
# Outline: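 Promega JAK3 at 0.21 nM was preincubated with inhibitor for 3 h at room temperature before biotinylated substrate and ATP were added. The reaction was stopped with EDTA detection buffer containing 31.25 nM SA-XL665 and Eu-antibody. After 60 min, the HTRF 665/620 nm emission ratio reflected substrate phosphorylation.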
# BTK [1] = target: T1, BTK (Homo sapiens (Human), UniProt Q06187); assay: Ramos RA1 cell lysis and immunoassay, phospho-BTK (Y223) inhibition; assay type: cell-based; parameters: key: X: BTK bound and autophosphoration of BTK inhibited in cells; conditions: RAMOS cells, compound concentration 1 μM
# T1 sequence (Q06187 whole entry): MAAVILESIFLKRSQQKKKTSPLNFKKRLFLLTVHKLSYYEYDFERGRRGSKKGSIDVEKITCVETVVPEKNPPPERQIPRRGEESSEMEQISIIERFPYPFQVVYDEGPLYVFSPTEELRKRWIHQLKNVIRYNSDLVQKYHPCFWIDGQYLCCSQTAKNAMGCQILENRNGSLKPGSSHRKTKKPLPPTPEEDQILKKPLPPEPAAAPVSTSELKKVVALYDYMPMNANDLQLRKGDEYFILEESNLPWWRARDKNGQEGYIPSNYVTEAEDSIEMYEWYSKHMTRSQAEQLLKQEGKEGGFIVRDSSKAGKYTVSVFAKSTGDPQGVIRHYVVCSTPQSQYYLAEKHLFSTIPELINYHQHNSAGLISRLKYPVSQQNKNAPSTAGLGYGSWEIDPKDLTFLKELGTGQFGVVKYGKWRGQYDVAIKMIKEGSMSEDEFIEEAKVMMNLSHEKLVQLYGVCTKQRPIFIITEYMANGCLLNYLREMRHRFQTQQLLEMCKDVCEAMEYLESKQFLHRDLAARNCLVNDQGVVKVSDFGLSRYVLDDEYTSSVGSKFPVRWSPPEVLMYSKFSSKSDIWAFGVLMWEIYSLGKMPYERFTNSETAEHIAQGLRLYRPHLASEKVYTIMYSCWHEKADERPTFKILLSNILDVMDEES
# Outline: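 Ramos RA1 cells treated with compound or DMSO for 24 h at 37° C., lysed in RIPA, analysed by Simple Western. Total BTK normalised to β-actin, pBTK (Y223) to total-protein reagent; both expressed relative to DMSO control.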
# EGFR = EGFR (Homo sapiens (Human), UniProt P00533); assay: HTRF KinEASE-TK kinase assay, EGFR; assay type: biochemical; conditions: 3 h preincubation; for remaining activity at 1 µM: 1 μM compound, read-out: % EGFR Remaining activity vs DMSO (1 μM, 3 h); for remaining activity at 10 µM: 10 μM compound, read-out: % EGFR Remaining activity vs DMSO (10 μM, 3 h); for IC50: dose response, read-out: EGFR Inhibition IC50
# EGFR, sequence (P00533 25-1210): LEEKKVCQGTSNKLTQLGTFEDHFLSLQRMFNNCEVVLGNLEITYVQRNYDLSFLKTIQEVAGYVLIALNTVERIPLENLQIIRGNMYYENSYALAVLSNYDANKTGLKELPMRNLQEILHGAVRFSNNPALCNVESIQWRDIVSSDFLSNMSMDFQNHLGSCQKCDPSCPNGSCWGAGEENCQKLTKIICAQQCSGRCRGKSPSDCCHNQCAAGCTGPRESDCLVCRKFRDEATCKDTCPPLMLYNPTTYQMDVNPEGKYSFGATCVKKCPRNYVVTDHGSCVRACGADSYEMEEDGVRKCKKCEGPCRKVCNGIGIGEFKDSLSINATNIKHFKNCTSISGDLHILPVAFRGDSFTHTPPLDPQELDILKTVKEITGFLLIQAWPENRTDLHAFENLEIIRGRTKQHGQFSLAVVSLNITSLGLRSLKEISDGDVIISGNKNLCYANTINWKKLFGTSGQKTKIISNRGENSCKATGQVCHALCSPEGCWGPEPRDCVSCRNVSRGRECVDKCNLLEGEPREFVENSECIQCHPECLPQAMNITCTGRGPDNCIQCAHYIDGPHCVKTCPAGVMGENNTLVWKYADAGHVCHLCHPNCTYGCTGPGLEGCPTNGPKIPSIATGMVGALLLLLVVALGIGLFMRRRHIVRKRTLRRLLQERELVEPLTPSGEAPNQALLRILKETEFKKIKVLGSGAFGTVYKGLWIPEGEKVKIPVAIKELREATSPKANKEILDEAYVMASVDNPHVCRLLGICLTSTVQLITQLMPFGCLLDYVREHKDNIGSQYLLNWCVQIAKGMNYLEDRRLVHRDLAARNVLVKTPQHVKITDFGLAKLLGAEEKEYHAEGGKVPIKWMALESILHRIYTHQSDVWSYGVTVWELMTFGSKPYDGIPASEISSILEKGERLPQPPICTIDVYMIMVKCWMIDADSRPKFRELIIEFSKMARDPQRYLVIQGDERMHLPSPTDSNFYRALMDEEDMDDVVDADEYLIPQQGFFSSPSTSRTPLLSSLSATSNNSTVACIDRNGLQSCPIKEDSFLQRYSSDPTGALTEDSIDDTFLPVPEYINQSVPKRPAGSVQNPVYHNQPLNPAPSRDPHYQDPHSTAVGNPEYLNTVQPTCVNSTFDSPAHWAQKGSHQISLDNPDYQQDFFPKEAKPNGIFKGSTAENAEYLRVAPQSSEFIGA
# Outline: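 HTRF KinEASE-TK format: EGFR pre-incubated with compound at 1 and 10 uM final (0.5% DMSO) in kinase buffer with 2 mM MnCl2, 5 mM MgCl2 and 1 mM TCEP.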
# BTK [2] = target: T1, BTK; assay: HTRF KinEASE-TK kinase assay, BTK; assay type: biochemical; conditions: 3 h preincubation; for remaining activity at 1 µM: 1 μM compound, read-out: % BTK Remaining activity vs DMSO (1 μM, 3 h); for remaining activity at 10 µM: 10 μM compound, read-out: % BTK Remaining activity vs DMSO (10 μM, 3 h); for IC50: dose response, read-out: BTK Inhibition IC50
# Outline: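 BTK activity in HTRF KinEASE-TK format, buffer containing 10 mM MnCl2, 5 mM MgCl2, 1 uM ATPγS and 1 mM TCEP; 45 min reaction with biotinylated substrate and ATP.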
# FGFR4 = FGFR4 (Homo sapiens (Human), UniProt P22455); assay: HTRF KinEASE-TK kinase assay, FGFR4; assay type: biochemical; conditions: for remaining activity at 1 µM: read-out: % FGFR4 Remaining activity vs DMSO (1 μM, 3 h); for remaining activity at 10 µM: read-out: % FGFR4 Remaining activity vs DMSO (10 μM, 3 h); for IC50: dose response
# FGFR4, sequence (P22455 22-802): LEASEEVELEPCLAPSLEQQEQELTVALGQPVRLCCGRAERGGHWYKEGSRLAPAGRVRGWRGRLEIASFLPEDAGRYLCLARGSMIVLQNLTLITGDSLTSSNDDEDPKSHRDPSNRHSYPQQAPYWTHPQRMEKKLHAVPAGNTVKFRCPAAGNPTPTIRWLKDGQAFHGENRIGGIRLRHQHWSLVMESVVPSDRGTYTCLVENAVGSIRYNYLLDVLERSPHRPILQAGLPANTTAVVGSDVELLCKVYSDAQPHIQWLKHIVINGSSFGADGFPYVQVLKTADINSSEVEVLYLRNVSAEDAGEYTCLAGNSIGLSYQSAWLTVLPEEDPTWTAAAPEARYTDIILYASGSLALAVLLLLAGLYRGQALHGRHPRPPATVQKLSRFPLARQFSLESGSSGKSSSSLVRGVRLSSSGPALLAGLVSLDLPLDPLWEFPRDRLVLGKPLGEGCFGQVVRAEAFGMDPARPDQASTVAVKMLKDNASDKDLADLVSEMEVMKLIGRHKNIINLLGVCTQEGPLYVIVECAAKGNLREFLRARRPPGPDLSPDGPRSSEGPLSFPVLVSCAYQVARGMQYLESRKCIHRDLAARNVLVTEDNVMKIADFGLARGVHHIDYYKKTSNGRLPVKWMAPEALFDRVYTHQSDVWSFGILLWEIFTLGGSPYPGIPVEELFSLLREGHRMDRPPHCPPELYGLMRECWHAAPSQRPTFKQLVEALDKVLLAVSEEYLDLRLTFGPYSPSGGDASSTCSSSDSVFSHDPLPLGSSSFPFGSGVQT
# Outline: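 Promega FGFR4 at 0.333 ng/ul (5.12 nM) preincubated with or without inhibitor for 3 h at room temperature, then reaction started with biotinylated substrate and ATP. Stopped with EDTA detection buffer containing 31.25 nM SA-XL665 and Eu-antibody; after 60 min, HTRF 665/620 nm ratio read as substrate phosphorylation.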
# BMX = BMX (Homo sapiens (Human), UniProt P51813); assay: HTRF KinEASE-TK kinase assay, BMX; assay type: biochemical; conditions: for remaining activity at 1 µM: 1 uM compound; for remaining activity at 1 µM / remaining activity at 10 µM: 3 h preincubation; for remaining activity at 10 µM: 10 uM compound; for IC50: dose response
# BMX, sequence (P51813 whole entry): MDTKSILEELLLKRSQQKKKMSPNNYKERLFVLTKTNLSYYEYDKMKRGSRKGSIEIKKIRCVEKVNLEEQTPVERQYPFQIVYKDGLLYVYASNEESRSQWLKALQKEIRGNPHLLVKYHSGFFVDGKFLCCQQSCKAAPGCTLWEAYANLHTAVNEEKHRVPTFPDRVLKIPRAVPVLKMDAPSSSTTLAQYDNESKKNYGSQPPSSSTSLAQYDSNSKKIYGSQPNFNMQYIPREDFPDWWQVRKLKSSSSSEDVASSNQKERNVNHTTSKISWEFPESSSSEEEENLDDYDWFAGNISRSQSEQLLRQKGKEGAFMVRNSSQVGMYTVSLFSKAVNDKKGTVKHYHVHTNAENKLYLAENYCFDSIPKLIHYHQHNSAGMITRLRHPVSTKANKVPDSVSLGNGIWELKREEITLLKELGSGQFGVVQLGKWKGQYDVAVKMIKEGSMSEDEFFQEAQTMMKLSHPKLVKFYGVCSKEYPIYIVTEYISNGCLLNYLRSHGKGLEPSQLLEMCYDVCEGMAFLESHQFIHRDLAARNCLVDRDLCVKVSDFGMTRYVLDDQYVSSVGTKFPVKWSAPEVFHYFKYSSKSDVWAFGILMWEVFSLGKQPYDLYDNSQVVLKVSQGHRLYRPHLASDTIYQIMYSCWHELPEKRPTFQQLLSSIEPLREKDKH
# Outline: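 Purchased BMX (0.333 ng/ul, 3.03 nM) was preincubated with or without inhibitor for 3 h at room temperature, then biotinylated substrate and ATP were added. Reactions were stopped with EDTA-containing buffer holding 31.25 nM SA-XL665 and Eu-antibody, and after 60 min phosphorylation was read as the HTRF 665/620 nm emission ratio.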
# RIPK2, sequence (O43353 whole entry, species assumed): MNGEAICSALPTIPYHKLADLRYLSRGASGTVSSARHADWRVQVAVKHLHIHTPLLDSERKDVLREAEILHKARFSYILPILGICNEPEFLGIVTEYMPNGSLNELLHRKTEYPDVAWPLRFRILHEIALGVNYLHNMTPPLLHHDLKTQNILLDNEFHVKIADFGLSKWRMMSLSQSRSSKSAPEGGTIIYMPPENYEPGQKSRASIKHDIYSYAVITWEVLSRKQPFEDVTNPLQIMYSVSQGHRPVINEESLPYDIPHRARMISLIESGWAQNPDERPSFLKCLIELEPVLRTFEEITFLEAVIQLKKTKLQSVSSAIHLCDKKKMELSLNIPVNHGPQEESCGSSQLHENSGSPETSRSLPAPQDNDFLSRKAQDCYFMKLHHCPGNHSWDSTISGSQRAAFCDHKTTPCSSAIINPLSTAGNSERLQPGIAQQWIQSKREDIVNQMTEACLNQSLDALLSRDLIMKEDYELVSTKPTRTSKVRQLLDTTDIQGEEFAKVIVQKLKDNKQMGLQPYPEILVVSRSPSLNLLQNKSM
SMILES,remaining activity at 1 µM (RIPK2),remaining activity at 10 µM (RIPK2),IC50 (JAK3),remaining activity at 1 µM (JAK3),remaining activity at 10 µM (JAK3),"pBTK inhibition (RAMOS, 24 h) (BTK [1])",remaining activity at 1 µM (EGFR),remaining activity at 10 µM (EGFR),IC50 (EGFR),remaining activity at 1 µM (BTK [2]),remaining activity at 10 µM (BTK [2]),IC50 (BTK [2]),remaining activity at 1 µM (FGFR4),remaining activity at 10 µM (FGFR4),remaining activity at 1 µM (BMX),remaining activity at 10 µM (BMX),IC50 (BMX),IC50 (FGFR4)
"C[S@+]([O-])c1c(F)c(F)c(F)c(F)c1C(=O)N1CC(n2nc(-c3ccc(Oc4ccccc4)cc3)c3c(N)ncnc32)C1 (racemic) [Compound I-37, (3-(4-amino-3-(4-phenoxyphenyl)-1H-pyrazolo[3,4-d]pyrimidin-1-yl)azetidin-1-yl)(2,3,4,5-tetrafluoro-6-(methylsulfinyl)phenyl)methanone]",50 to 90%,> 90%,> 1000 nM,< 50%,< 50%,X,< 50%,< 50%,< 1000 nM,< 50%,< 50%,< 1000 nM,> 90%,> 90%,< 50%,< 50%,< 1000 nM,–
"CN(CCn1nc(-c2ccc(Oc3ccccc3)cc2)c2c(N)ncnc21)C(=O)c1c(F)c(F)c(F)c(F)c1S(N)(=O)=O [Compound I-33, N-(2-(4-amino-3-(4-phenoxyphenyl)-1H-pyrazolo[3,4-d]pyrimidin-1-yl)ethyl)-2,3,4,5-tetrafluoro-N-methyl-6-sulfamoylbenzamide]",50 to 90%,> 90%,–,> 90%,50 to 90%,X,> 90%,< 50%,–,< 50%,< 50%,< 1000 nM,50 to 90%,< 50%,< 50%,< 50%,–,–
"Nc1ncnc2c1c(-c1ccc(Oc3ccccc3)cc1)nn2CCCNC(=O)c1c(F)c(F)c(F)c(F)c1S(N)(=O)=O [Compound I-34, N-(3-(4-amino-3-(4-phenoxyphenyl)-1H-pyrazolo[3,4-d]pyrimidin-1-yl)propyl)-2,3,4,5-tetrafluoro-6-sulfamoylbenzamide]",> 90%,> 90%,–,50 to 90%,< 50%,X,< 50%,< 50%,–,< 50%,< 50%,< 1000 nM,< 50%,< 50%,< 50%,< 50%,< 1000 nM,< 1000 nM
"C[S+]([O-])c1c(F)c(F)c(F)c(F)c1C(=O)N1CCC[C@@H](n2nc(-c3ccc(Oc4ccccc4)cc3)c3c(N)ncnc32)C1 (stereo partly drawn) [Compound I-36, ((R)-3-(4-amino-3-(4-phenoxyphenyl)-1H-pyrazolo[3,4-d]pyrimidin-1-yl)piperidin-1-yl)(2,3,4,5-tetrafluoro-6-(methylsulfinyl)phenyl)methanone]",> 90%,> 90%,–,> 90%,50 to 90%,X,> 90%,> 90%,–,< 50%,< 50%,< 1000 nM,> 90%,< 50%,< 50%,< 50%,–,–

# Second part, the molecule after the results:
remaining activity at 1 µM (RIPK2),remaining activity at 10 µM (RIPK2),IC50 (JAK3),remaining activity at 1 µM (JAK3),remaining activity at 10 µM (JAK3),"pBTK inhibition (RAMOS, 24 h) (BTK [1])",remaining activity at 1 µM (EGFR),remaining activity at 10 µM (EGFR),IC50 (EGFR),remaining activity at 1 µM (BTK [2]),remaining activity at 10 µM (BTK [2]),IC50 (BTK [2]),remaining activity at 1 µM (FGFR4),remaining activity at 10 µM (FGFR4),remaining activity at 1 µM (BMX),remaining activity at 10 µM (BMX),IC50 (BMX),IC50 (FGFR4),SMILES
< 50%,50 to 90%,–,> 90%,> 90%,X,> 90%,> 90%,–,50 to 90%,< 50%,–,50 to 90%,> 90%,50 to 90%,50 to 90%,–,–,"C[S@+]([O-])c1c(F)c(F)c(F)c(F)c1C(=O)Nc1ncnc2[nH]ccc12 (racemic) [Compound I-46, 2,3,4,5-tetrafluoro-6-(methylsulfinyl)-N-(7H-pyrrolo[2,3-d]pyrimidin-4-yl)benzamide]"
> 90%,> 90%,–,> 90%,< 50%,X,< 50%,< 50%,> 1000 nM,< 50%,< 50%,< 1000 nM,< 50%,< 50%,< 50%,< 50%,< 1000 nM,–,"CS(=O)(=O)c1c(F)c(F)c(F)c(F)c1C(=O)NCCn1nc(-c2ccc(Oc3ccccc3)cc2)c2c(N)ncnc21 [Compound I-38, N-(2-(4-amino-3-(4-phenoxyphenyl)-1H-pyrazolo[3,4-d]pyrimidin-1-yl)ethyl)-2,3,4,5-tetrafluoro-6-(methylsulfonyl)benzamide]"
–,–,> 1000 nM,< 50%,< 50%,X,> 90%,50 to 90%,–,< 50%,< 50%,< 1000 nM,> 90%,50 to 90%,< 50%,< 50%,< 1000 nM,–,"CS(=O)(=O)c1c(F)c(F)c(F)c(F)c1CNCCNc1ncnc2[nH]ccc12 [Compound I-50, N^1-(7H-pyrrolo[2,3-d]pyrimidin-4-yl)-N2-(2,3,4,5-tetrafluoro-6-(methylsulfonyl)benzyl) ethane-1,2-diamine]"
–,–,< 1000 nM,< 50%,< 50%,X,> 90%,< 50%,–,< 50%,< 50%,–,< 50%,< 50%,< 50%,< 50%,–,< 1000 nM,"COCCOc1ccc(Nc2ncc(F)c(Nc3cccc(NC(=O)c4c(F)c(F)c(F)c(F)c4S(C)(=O)=O)c3)n2)cc1 [Compound I-61, 2,3,4,5-tetrafluoro-N-(3-((5-fluoro-2-((4-(2-methoxyethoxy)phenyl)amino)pyrimidin-4-yl)amino)phenyl)-6-(methylsulfonyl)benzamide]"
–,–,–,50 to 90%,< 50%,X,> 90%,> 90%,–,< 50%,< 50%,–,< 50%,< 50%,< 50%,< 50%,–,–,"COCCOc1ccc(Nc2ncc(F)c(Nc3cccc(Nc4c(F)c(F)c(F)c(F)c4S(C)(=O)=O)c3)n2)cc1 [Compound I-64, 5-fluoro-N^2-(4-(2-methoxyethoxy)phenyl)-N^4-(3-((2,3,4,5-tetrafluoro-6-(methylsulfonyl)phenyl)amino)phenyl)pyrimidine-2,4-diamine]"
